Test results: patent US20230277553A1, “THERAPEUTIC COMPOSITION OF CURE-PRO COMPOUNDS FOR TARGETED DEGRADATION OF BET DOMAIN PROTEINS, AND METHODS OF MAKING AND USAGE” (CORNELL UNIVERSITY, priority 2020, published 2023)
“Also recorded” adds a separate entry of the source.

Columns and labels:
Format in all cases: cell-based
[1] = target: T1, BRD4 (Homo sapiens, UniProt O60885); test: CURE-PRO-mediated BRD4 degradation with VHL ligands, WES (ProteinSimple), MCF7 cells; parameters: endogenous in cells
Description: (§1) All cell lines were purchased from ATCC or DSMZ and grown at 37° C. with 5% CO2. Human HeLa cells were cultured in complete growth medium (Dulbecco's modified Eagle's medium (DMEM) supplemented with 10% FBS); MCF7 cells were cultured in complete growth medium (Dulbecco's modified Eagle's medium (DMEM) supplemented with 10% FBS and 0.01 mg/ml human recombinant insulin (Sigma Aldrich); Namalwa and MOLM-13 cells were cultured in complete growth medium (RPMI 1640 medium supplemented with 10% FBS); MV-4-11 were cultured in complete growth medium (Iscove's Modified Dulbecco's medium, supplemented with 10% FBS); HCT116 cells were cultured in complete growth medium (McCoy's 5a Medium supplemented with 10% FBS). For cellular degradation of BRD4 studies, cells were seeded in a 12-well plate at 70-80% confluency, allowed to attach overnight, and incubated with the indicated compounds for the indicated time. When indicated, a 15-minute pretreatment with 10 μM pomalidomide, 10 μM VHL298, 10 μM Nutlin3a, 1 μM MG-132 or 1 μM Carfilzomib was performed before the addition of CURE-PROs. For washout studies, after CURE-PRO treatment, media was aspirated and incubated with complete medium for the indicated time before lysis.
WES Simple analysis was performed on WES system (ProteinSimple-Biotechne) according to the manufacturer's instructions. Total protein concentrations of cell lysates were determined by the Pierce BCA kit (Thermo Fisher). 3 μL of 0.3 μg/μL of the protein lysate was loaded onto a 12- to 230-kDa WES assay plate (ProteinSimple) where 300 nL sample was withdrawn through a capillary, subjected to electrophoretic separation of proteins by size, and followed by the simultaneous, HRP-based detection of proteins using the Anti-Rabbit Detection Module (Proteinsimple: #DM-001). The electropherograms were checked then the automatic peak detection was manually corrected if it was required.
MCF7 cells (3×10^6) were treated for 4-24 hours continually (FIG. 72), or treated for 4h, washed and incubated for a further 4-24 h with the compounds solubilized in DMSO. Compounds were added at 10 μM each. Cells were washed, lysed, and clarified by centrifugation. The total protein concentration was quantified by the BCA method (ThermoFisher Sciences). Standardized protein samples were electrophoresed and imaged as described in the WES Proteinsimple section above. FIG. 69 depicts the CURE-PRO-mediated BRD4 degradation for the BRD-E50 monomer, and VHL ligand, 8305.
MCF7 cells (3×10^6) were treated for 24 hours with the compounds solubilized in DMSO. CURE-PRO monomers were added at 10 μM each and the proteasomal inhibitors at 1 μM. Standardized protein samples were electrophoresed and imaged as described in the WES Proteinsimple section above. FIGS. 73 and 75 depicts the dependence of the proteasome for CURE-PRO-mediated BRD4 degradation.
MCF7 cells (3×10^6) were treated for 24 hours with the compounds solubilized in DMSO. CURE-PRO monomers were added at 10 μM. FIG. 74 depicts the CURE-PRO-mediated BRD4 degradation for the BRD-E50 monomer, and VHL ligand, 8305 combined in a 1:1 ratio after 24 h.

[2] = target: T1, BRD4; test: CURE-PRO-mediated BRD4 degradation with VHL ligands, Western blot, MCF7 cells; parameters: endogenous in cells; conditions: MCF7, 24 h
Description: as §1
HeLa, MCF7, or HCT116 cells (2.5-3×10^6) were treated for 24 hours with the indicated compounds solubilized in DMSO. The cells were washed in ice-cold PBS and were then lysed in RIPA lysis buffer (150 mM NaCl, 5 mM EDTA, 1% NP-40, 0.5% sodium deoxycholate, 0.1% SDS, 50 mM Tris, pH 8.0.) with Roche protease inhibitor complete cocktail and phosphatase inhibitors (10 mM sodium fluoride, 10 mM sodium pyrophosphate, 1 mM sodium orthovanadate and 20 mM β-glycerophosphate). The total protein concentrations were determined by Bradford Protein Assay and 10-20 μg of protein was loaded onto 4-15% Tris-Glycine gradient gels (Biorad). After standard gel electrophoresis, the separated proteins were transferred to PVDF membrane by wet transfer. The immunoblots were then blocked for 1 hour in 5% skim milk in TBST or 5% BSA in TBST, according to manufacturer's instructions, before an overnight incubation at 4° C. with indicated antibodies and membranes. Membranes were then incubated with the appropriate horseradish peroxidase-conjugated secondary antibodies (1:5,000 dilution) for 1 h at room temperature and the bands were visualized using the Clarity Max Western ECL Substrate (Biorad) and the ChemiDoc Imaging System (Biorad). Signal was detected with ECL Western Blotting Substrate (Pierce) and X-ray film processed with a Konica SRX-101 X-ray film processor or captured by Bio-Rad's Chemidoc Imaging system.
MCF7 cells (3×10^6) were treated for 24 h with the compounds solubilized in DMSO. Compounds were added at 100 nM-10 μM. […]

[3] = target: T1, BRD4; test: Summary of BRD4 degradation by CURE-PRO pairs, estimated from Western Blot or WES (Proteinsimple); parameters: endogenous in cells; conditions: Table 3; aromatic 1,2-diol-containing VHL ligand, second drawing (8305)
Description: A black check mark indicates efficacy of 30% to 70% or higher protein degradation.

[4] = test system: Molm-13 cells; test: CellTiter-Glo cell viability, Molm-13 cells; conditions: Molm-13, 24 and 72 h
Description: CellTiter-Glo® 2.0 Cell Viability Assay (Promega) was carried out following the manufacturer's recommendations. Cells were seeded at a density of 1000 cells/well in a white 96 well plates (Corning, #3917) in a total volume of 100 μl with respective monomers, combinations of BRD ligands together with E3 ligase ligands or vehicle control treatment. After a 72 h incubation, 100 ul of the CellTiter-Glo® substrate was added per well and luminescence was read on a Spectramax M5 (Molecular Devices). Dose-response curves were generated using Graphpad Prism software.
Molm-13 cells (1×10^4) were treated for 24 (FIG. 77A) or 72 (FIG. 77B) hours were treated in white 96 well plates with the compounds (10 nM-10 μM solubilized in DMSO). After indicated times cell viability was assessed using the CellTiter-Glo® Luminescent Cell Viability Assay (Promega) and the signal detected on a SpectraMax M5 (Molecular Devices).

[5] = test system: caspase 3/7; test: Caspase-Glo 3/7 assay, Molm-13 cells
Description: (§2) Caspase-glo® assay (Promega) was conducted following the manufacturer's recommendations. Cells were seeded at a density of 5000 cells/well in a white 96 well plates (Corning, #3917) in a total volume of 100 μl with respective monomers, combinations of BRD ligands together with E3 ligase ligands or vehicle control treatment. After a 24 h incubation, 100 μl of the […] substrate was added per well and luminescence was read on a Spectramax M5 (Molecular Devices).
(§3) Molm-13 (FIG. 76A) or Namalwa (FIG. 76B) cells (5×10^4) were treated for 24 hours with the compounds solubilized in DMSO in white 96 well plates (10 nM-10 μM solubilized in DMSO). FIG. 76 is a bar graph depiction of fold increase of apoptosis assessed via caspase 3/7 activity using the Caspase-glo assay (Promega) described above.

[6] = test system: caspase 3/7; test: Caspase-Glo 3/7 assay, Namalwa cells
Description: as §2
Namalwa cells (5×104) were treated for 24 hours with the compounds solubilized in DMSO. FIG. 57 is a bar graph depiction of fold increase of apoptosis assessed via caspase 3/7 activity using the Caspase-glo assay (Promega) described above.
as §3

## CCNC(=O)C[C@@H]1N=C(c2ccc(Cl)cc2)c2cc(B(O)O)ccc2-n2c(C)nnc21 [BRD-E50, ((4S)-6-(4-chlorophenyl)-4-(2-(ethylamino)-2-oxoethyl)-1-methyl-4H-benzo[f][1,2,4]triazolo[4,3-a][1,4]diazepin-8-yl)boronic acid]
[1]; MCF7, 10 μM
  BRD4 degradation, monomer alone (WES): no degradation of BRD4
[1]; MCF7, 10 μM each
  BRD4 degradation, with VHL ligand 8304 (WES): No degradation is noted
[1]; MCF7, 10 μM each, 1:1 with 8305, 4-24 h, with washout where stated
  BRD4 degradation, with VHL ligand 8305 (WES): directs degradation of BRD4 as early as 4 h, with sustained degradation 24 h after wash out; also recorded: marked BRD4 degradation after 4h with sustained degradation for up to 8h after drugs are washed out
[1]; MCF7, 24 h, 10 μM
  BRD4 degradation with 8305 after VHL298 preincubation: No degradation is noted
[2]; 1:1 with 8304, 1-10 μM
  BRD4 degradation, with VHL ligand 8304 (Western blot): but not when VHL ligand 8304 is co-incubated; also recorded: no degradation is noted
[2]; 1:1 with 8305, 100 nM-10 μM
  BRD4 degradation, with VHL ligand 8305 (Western blot): there is degradation of BRD4; also recorded: marked BRD4 degradation
[3]
  Degradation of BRD4 in combination with VHL ligand [drawing 397]: ✓ (A black check mark indicates efficacy of 30% to 70% or higher protein degradation)
[4]
  Cell viability, co-treatment with VHL298: decreases levels of cell viability to similar levels of BRD-E50 treatment alone
[4]; 1:1 with 8305, 10 nM-10 μM
  Loss of cell viability, co-dosed with VHL ligand 8305: greater loss of cell viability; also recorded: marked loss in cell viability
[5]; MOLM13
  Caspase activity, co-treatment with VHL298: does not increase caspase activity
[5]; Molm-13, 24 hours, 1:1 with 8305, 10 nM-10 μM
  Caspase 3/7 activation, co-dosed with VHL ligand 8305: marked caspase activation; also recorded: demonstrates activation of caspase 3/7
[6]
  Caspase activity, co-treatment with VHL298: does not increase caspase activity
[6]; 24 hours, 1:1 with 8305, 10 nM-10 μM
  Caspase 3/7 activation, co-dosed with VHL ligand 8305: marked caspase activation; also recorded: demonstrates activation of caspase 3/7
